Data taken from US10259772B2, “Agents for maintaining undifferentiated state and promoting proliferation of stem cells” (NIPPON MENARD COSMETIC CO., LTD., priority 2014, dated 2019).

What was measured:
Assay type in all cases: cell-based
[1] = system: murine embryonic stem cells (murine ES cells); assay: Evaluation of undifferentiated state-maintaining effect on stem cells (Nanog gene expression, real-time PCR); settings: final concentration 0.001%, 3 days of culture, Nanog/Gapdh relative expression at onset of culture defined as 100% undifferentiation, no addition control 25
Excerpt: Using a medium prepared by adding fetal bovine serum (FBS, 15%, manufactured by Sigma-Aldrich Co. LLC), a nucleoside solution (100 times dilution, manufactured by Sumitomo Dainippon Pharma Co., Ltd.), a non-essential amino acids solution (100 times dilution, manufactured by Sumitomo Dainippon Pharma Co., Ltd.), a β2-mercaptoethanol solution (100 times dilution, manufactured by Sumitomo Dainippon Pharma Co., Ltd.), an L-glutamine solution (100 times dilution, manufactured by Sumitomo Dainippon Pharma Co., Ltd.), penicillin (100 units/mL, manufactured by Sigma-Aldrich Co. LLC), and streptomycin (100 μg/mL, manufactured by Sigma-Aldrich Co. LLC) to Dulbecco's Modified Eagle Medium (manufactured by Gibco), 5×10^5 cells of murine embryonic stem cells (murine ES cells: manufactured by COSMO BIO Co., Ltd.) were seeded in a 6 cm dish coated with gelatin (manufactured by Sigma-Aldrich Co. LLC), one or a mixture of fatty acid glycerides 1 to 9 was added to the medium at a final concentration of 0.001%, and culture was continued for 3 days.
After 3 days of culture, cells were collected and washed twice with PBS(−) and RNA was extracted from the cells with Trizol Reagent (Invitrogen). Extracted RNA was reverse-transcripted to cDNA using 2-STEP real-time PCR kit (Applied Biosystems) and then real-time PCR (95° C.: 15 seconds, 60° C.: 30 seconds, 40 cycles) was performed by AB17300 (Applied Biosystems) using the following primer sets to confirm the gene expression of Nanog (undifferentiation marker: Cell Res. 2007 January; 17 (1): 42-9. Review. Nanog and transcriptional networks in embryonic stem cell pluripotency. Pan G, Thomson J A.). Other operations were conducted according to a determined procedure.
The undifferentiated state-maintaining effect was evaluated as follows: the value of the relative gene expression level of Nanog (Nanog gene expression level/Gapdh gene expression level) calculated as the ratio of the Nanog mRNA expression level to the Gapdh mRNA expression level, which is an internal standard, in murine ES cells at the onset of culture was defined as 100% undifferentiation; and relative thereto, the value of the relative gene expression level of Nanog in the ES cells after 3 days of culture was calculated and evaluated.

human somatic stem cells [2] = assay: Evaluation of proliferation-promoting effect on stem cells (cell count); settings: 72 h, final concentration 0.001%, 3 days of culture, number of cells in no addition group (control) defined as 100%, read-out: Percent cell proliferation (%)
Protocol: 3×10^5 cells of human somatic stem cells (manufactured by DS Pharma Biomedical Co., Ltd.) cultured using a human stem cell culture medium (manufactured by Toyobo Co., Ltd.) were seeded in a 6 cm dish, one or a mixture (fatty acid glycerides 2+3, fatty acid glycerides 4+5) of fatty acid glycerides 1 to 9 was added at a final concentration of 0.001%, and culture was continued for 3 days. When a mixture of two fatty acid glycerides was used, the ratio thereof was 1:1 (weight ratio).
After 3 days of culture, cells were washed three times with PBS(−), then collected with a rubber policeman, and cells were counted for each culture.
The total number of cells without addition of fatty acid glycerides was defined as control and the control was defined as 100(%). Increase or decrease (%) of the number of cells with addition of fatty acid glycerides was calculated and the stem cell proliferation-promoting effect was evaluated.

human somatic stem cells [3] = assay: In vitro wound healing test (scratch assay); settings: final concentration 0.001%, 100 × area of scratch region at 48 hours / area at 0 hours, no addition control 61
Protocol: The scratch assay (JP Publication (Kokai) No. 2013-18756), which is generally conducted as a method for evaluating the efficacy to promote wound healing, was conducted. Specifically, 5×10^5 cells of human somatic stem cells were seeded in a 3.5 cm dish, cultured using human stem cell culture medium to confluency, and then the bottom of the dish was scratched with the end of a sterilized tip to generate a gap in the cell sheet. Subsequently, the medium was changed to a medium supplemented with one or a mixture (fatty acid glycerides 2+3, fatty acid glycerides 4+5) of fatty acid glycerides 1 to 9 at a final concentration of 0.001% and the percent recovery of the cell gap was evaluated 48 hours later. To obtain the same area under a phase contrast microscope when obtaining images before and after the recovery, a mark that can be used as a reference point is provided near the scratch.
The scratch region 48 hours later was calculated as [scratch region 48 hours later]=100× [area of scratch region at 48 hours]/[area of scratch region at 0 hours] using a commercially available image analysis software. These test results are illustrated in Table 4 below.

Compound: CCCCCC=CCC=CCCCCCCCC(=O)OCC(O)CO (stereo not drawn) [Fatty acid glyceride 1, 1-Monolinolein]
- Nanog expression level (%) after 3 days of culturing [1]: 33%
- activity at 0.001 % (human somatic stem cells [2]): 115%
- Scratch region 48 hours later (%) (human somatic stem cells [3]): 54%

Compound: CCCCCC=CCC=CCCCCCCCC(=O)OCC(O)COC(=O)CCCCCCCCCCCCCCC (stereo not drawn) [Fatty acid glyceride 2, 1-Palmitin-3-linolein]
- Nanog expression level (%) after 3 days of culturing [1]: 71%
- activity at 0.001 % (human somatic stem cells [2]): 160%
- Scratch region 48 hours later (%) (human somatic stem cells [3]): 30%

Compound: CCCCCC=CCC=CCCCCCCCC(=O)OCC(O)COC(=O)CCCCCCCC=CCC=CCCCCC (stereo not drawn) [Fatty acid glyceride 3, 1,3-Dilinolein]
- Nanog expression level (%) after 3 days of culturing [1]: 65%
- activity at 0.001 % (human somatic stem cells [2]): 158%
- Scratch region 48 hours later (%) (human somatic stem cells [3]): 32%

Compound: CCCCCC=CCC=CCCCCCCCC(=O)OCC(O)COC(=O)CCCCCCCC=CCCCCCCCC (stereo not drawn) [Fatty acid glyceride 4, 1-Olein-3-linolein]
- Nanog expression level (%) after 3 days of culturing [1]: 59%
- activity at 0.001 % (human somatic stem cells [2]): 148%
- Scratch region 48 hours later (%) (human somatic stem cells [3]): 38%

Compound: CCCCCC=CCC=CCCCCCCCC(=O)OCC(O)COC(=O)CCCCCCCCCCCCCCCCC (stereo not drawn) [Fatty acid glyceride 5, 1-Stearin-3-linolein]
- Nanog expression level (%) after 3 days of culturing [1]: 57%
- activity at 0.001 % (human somatic stem cells [2]): 145%
- Scratch region 48 hours later (%) (human somatic stem cells [3]): 40%

Compound: CCCCCCCCC=CCCCCCCCC(=O)OCC(O)COC(=O)CCCCCCCC=CCCCCCCCC (stereo not drawn) [Fatty acid glyceride 6, 1,3-Diolein]
- Nanog expression level (%) after 3 days of culturing [1]: 43%
- activity at 0.001 % (human somatic stem cells [2]): 130%
- Scratch region 48 hours later (%) (human somatic stem cells [3]): 44%

Compound: CCCCCC=CCC=CCCCCCCCC(=O)OC(CO)COC(=O)CCCCCCCCCCCCCCC (stereo not drawn) [Fatty acid glyceride 7, 1-Palmitin-2-linolein]
- Nanog expression level (%) after 3 days of culturing [1]: 41%
- activity at 0.001 % (human somatic stem cells [2]): 129%
- Scratch region 48 hours later (%) (human somatic stem cells [3]): 45%

Compound: CCCCCCCC/C=C\CCCCCCCC(=O)OCC(COC(=O)CCCCCCC/C=C\CCCCCCCC)OC(=O)CCCCCCC/C=C\CCCCCCCC [Fatty acid glyceride 8, Triolein]
- Nanog expression level (%) after 3 days of culturing [1]: 35%
- activity at 0.001 % (human somatic stem cells [2]): 118%
- Scratch region 48 hours later (%) (human somatic stem cells [3]): 52%

Compound: CCCCCC=CCC=CCCCCCCCC(=O)OCC(COC(=O)CCCCCCCC=CCC=CCCCCC)OC(=O)CCCCCCCC=CCC=CCCCCC (stereo not drawn) [Fatty acid glyceride 9, Trilinolein]
- Nanog expression level (%) after 3 days of culturing [1]: 34%
- activity at 0.001 % (human somatic stem cells [2]): 117%
- Scratch region 48 hours later (%) (human somatic stem cells [3]): 53%

Compound: CCCCCCCCCCCCCCCC(=O)O [Palmitic acid, reference compound]
- Nanog expression level (%) after 3 days of culturing [1]: 27%
- activity at 0.001 % (human somatic stem cells [2]): 102%
- Scratch region 48 hours later (%) (human somatic stem cells [3]): 60%

Compound: CCCCCCCCCCCCCCCC(=O)OCC(COC(=O)CCCCCCCCCCCCCCC)OC(=O)CCCCCCCCCCCCCCC [Tripalmitin, reference compound]
- Nanog expression level (%) after 3 days of culturing [1]: 26%
- activity at 0.001 % (human somatic stem cells [2]): 103%
- Scratch region 48 hours later (%) (human somatic stem cells [3]): 59%
